Molecular target: DRB3*0202 (Homo sapiens, UniProt P01903+P79483, A212P/D57E/F66Y/L67A/R103Q/R218S/R40L/S89Y/T80R/V86D/Y55F/Y59H)
Test: peptide affinity binding assay (peptide-MHC binding)

Sequence of DRB3*0202 (P01903 26-254 limits assumed): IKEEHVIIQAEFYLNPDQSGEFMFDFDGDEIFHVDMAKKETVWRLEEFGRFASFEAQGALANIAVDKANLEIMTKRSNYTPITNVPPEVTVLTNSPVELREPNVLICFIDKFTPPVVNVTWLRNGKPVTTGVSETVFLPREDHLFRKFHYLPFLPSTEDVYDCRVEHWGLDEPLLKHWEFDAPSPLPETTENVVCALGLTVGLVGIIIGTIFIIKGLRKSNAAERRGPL
Sequence of DRB3*0202 (P79483 30-266 R40L/Y55F/D57E/Y59H/F66Y/L67A/T80R/V86D/S89Y/R103Q/A212P/R218S limits assumed): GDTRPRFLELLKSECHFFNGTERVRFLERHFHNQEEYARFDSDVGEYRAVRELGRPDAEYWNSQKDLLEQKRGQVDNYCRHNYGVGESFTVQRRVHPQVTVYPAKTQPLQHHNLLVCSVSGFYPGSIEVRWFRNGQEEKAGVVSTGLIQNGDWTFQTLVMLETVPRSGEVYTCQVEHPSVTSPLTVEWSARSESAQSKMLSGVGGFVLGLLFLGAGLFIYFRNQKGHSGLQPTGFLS

`CC(C)C[C@H](NC(=O)[C@@H](NC(=O)[C@H](Cc1c[nH]c2ccccc12)NC(=O)[C@H](C)NC(=O)[C@H](C)NC(=O)[C@@H](NC(=O)[C@H](Cc1ccccc1)NC(=O)[C@H](CCCCN)NC(=O)[C@H](C)N)C(C)C)[C@@H](C)O)C(=O)N[C@@H](CCCCN)C(=O)N[C@@H](C)C(=O)N[C@@H](C)C(=O)N[C@@H](C)C(=O)O` [PADRE] was tested, and the “peptide-MHC binding affinity before and after the addition of an infrared fluorophore ligand” value was “essentially unchanged”.
